PMC9609996, “SAR Study and Molecular Mechanism Investigation of Novel Naphthoquinone-furan-2-cyanoacryloyl Hybrids with Antitumor Activity” (Pharmaceutics, 2022)
Read-outs that look alike come from different tables or passages of the source.

Experiments:
SKOV3 = experiment: CCK-8 anti-proliferation assay, SKOV3; format: cell-based; conditions: Homo sapiens, SK-OV-3, 48 h, mean ± SD
Protocol: (§1) Human cervical cancer HeLa, human prostate cancer PC3, human colonic carcinoma HCT116, human lung carcinoma A549, human breast cancer MDA-MB-231, mouse melanoma B16, human ovarian cancer SKOV3, human hepatoma Hep3B, and human liver L02 cells were purchased from the Cell Bank of Shanghai Institute of Biochemistry and Cell Biology, Chinese Academy of Sciences (Shanghai, China). The HeLa, A549, B16, PC3, MDA-MB-231, HCT116, and L02 cells were cultured in Dulbecco’s modified Eagle medium (DMEM, Gibco Inc.; Gaithersburg, MD, USA). All cultures were supplied with 10% fetal bovine serum (FBS; YHSM, Beijing, China), 100 IU/mL of penicillin, and 100 μg/mL of streptomycin, and cells were incubated at 37 °C in an atmosphere of 5% CO2.
(§2) A CCK-8 kit (MCE, USA) was used to perform a CCK-8 assay. Cells were plated and grown in the 96-well plates for the indicated period (48 h) in the incubator, followed by an incubation with the CCK-8 solutions for 1–4 h. Subsequently, the absorbance (450 nm) was measured by a microplate reader. The median inhibitory concentration (IC50) was determined from the dose–response curve. Experiments were performed in a triplicate.

Hep3B = experiment: CCK-8 anti-proliferation assay, Hep3B; format: cell-based, human; conditions: Homo sapiens, 48 h, mean ± SD
Protocol: as §1, §2

MDA-MB-231 = experiment: CCK-8 anti-proliferation assay, MDA-MB-231; format: cell-based, human; conditions: Homo sapiens, MDA-MB-231, 48 h, mean ± SD
Protocol: as §1, §2

B16 = experiment: CCK-8 anti-proliferation assay, B16; format: cell-based; conditions: Mus musculus, B16, 48 h, B16 mouse melanoma, mean ± SD
Protocol: as §1, §2

HeLa = experiment: CCK-8 anti-proliferation assay, HeLa; format: cell-based, human; conditions: Homo sapiens, mean ± SD; for inhibition at 20 µM: read-out: Inhibition Rate (%) at 20 μM HeLa
Protocol: as §1, §2

HCT116 = experiment: CCK-8 anti-proliferation assay, HCT116; format: cell-based, human; conditions: Homo sapiens, mean ± SD; for inhibition at 20 µM: HCT-116, 20 μM, read-out: Inhibition Rate (%) at 20 μM HCT116
Protocol: as §1, §2

A549 = experiment: CCK-8 anti-proliferation assay, A549; format: cell-based, human; conditions: Homo sapiens, mean ± SD; for inhibition at 20 µM: A549, 20 μM, read-out: Inhibition Rate (%) at 20 μM A549
Protocol: as §1, §2

L02 cells = experiment: CCK-8 assay on normal cells, L02; format: cell-based; conditions: L02 human normal hepatocytes, 48 h, mean ± SD
Protocol: as §1, §2

PC3 = experiment: CCK-8 anti-proliferation assay, PC3; format: cell-based, human; conditions: Homo sapiens, mean ± SD; for inhibition at 20 µM: PC-3, 20 μM, read-out: Inhibition Rate (%) at 20 μM PC3
Protocol: as §1, §2

[1] = tested on: four cancer cell lines (HeLa, PC3, A549, and HCT116); experiment: CCK-8 inhibition rates over four cancer cell lines; format: cell-based; conditions: Homo sapiens
Protocol: First, the inhibition rates at 20 μM for all newly synthesized compounds were evaluated on four cancer cell lines (HeLa, PC3, A549, and HCT116) by a CCK-8 assay. […] A variety of aliphatic amine substituents were well tolerated (4e, 4f, 5c, and 8f).
as §1, §2

[2] = tested on: various cancer cell lines; set-up: method as in PMID 23651330; conditions: read-out: IC50 against various cancer cell lines; cited from earlier work
[3] = one or two of the four cell lines, read-out: inhibition rates against one or two types of tumor cell lines
[4] = HeLa, PC3, A549, HCT116, CCK-8, read-out: inhibition rate, span over the four cancer cell lines

Row | Compound | inhibition at 20 µM (HeLa) [%] | inhibition at 20 µM (HCT116) [%] | inhibition at 20 µM (A549) [%] | inhibition at 20 µM (PC3) [%] | further results
1 | C[C@H](NC(=O)/C(C#N)=C/c1cccc(Br)n1)c1ccccc1 [WP1066, reference compound] |  |  |  |  | IC50 (SKOV3): 4.66 ± 0.13 µM; IC50 (Hep3B): 4.36 ± 0.05 µM; IC50 (MDA-MB-231): 8.17 ± 0.16 µM; IC50 (B16): 24.1 ± 0.7 µM; IC50 (HeLa; 48 h): 7.06 ± 1.17 µM; IC50 (HCT116; HCT-116, 48 h): 7.22 ± 3.14 µM; IC50 (A549; A549, 48 h, 48 h): 7.55 ± 0.06 µM; IC50 (L02 cells): 3.45 ± 0.41 µM; IC50 (PC3; PC-3, 48 h, 48 h): 1200 ± 30 nM
2 | COc1cc(N2CCC(N(C)C)CC2)ccc1NC(=O)c1ccc(-c2cc(OC)c3ccccc3c2OC)o1 [Compound 8i, 5-(1,4-Dimethoxynaphthalen-2-yl)-N-(4-(4-(dimethylamino)piperidin-1-yl)-2-methoxyphenyl)furan-2-carboxamide] | 55.62 ± 0.12 | 47.78 ± 0.19 | 31.67 ± 0.07 | 25.11 ± 0.05 | inhibition at 20 µM [1, 3]: > 50%
3 | NS(=O)(=O)c1cccc2c1C(=O)C=C(Nc1cccnc1)C2=O [Ly-5] |  |  |  |  | IC50 [2]: 500 to 1400 nM
4 | COc1cc(-c2ccc(/C=C(\C#N)C(=O)NCCN3CCOCC3)o2)c(OC)c2ccccc12 [Compound 4c, (E)-2-cyano-3-(5-(1,4-dimethoxynaphthalen-2-yl)furan-2-yl)-N-(2-morpholinoethyl)acrylamide] | 24.23 ± 0.01 | 18.78 ± 0.04 | 11.25 ± 0.05 | 8.99 ± 0.09 | inhibition at 20 µM [1, 4]: 8.99 to 24.2%
5 | COc1cc(-c2ccc(/C=C(\C#N)C(=O)NC3CC(C)(C)NC(C)(C)C3)o2)c(OC)c2ccccc12 [Compound 4e, (E)-2-cyano-3-(5-(1,4-dimethoxynaphthalen-2-yl)furan-2-yl)-N-(2,2,6,6-tetramethylpiperidin-4-yl)acrylamide] | 59.1 ± 0.21 | 40.53 ± 0.03 | 59.49 ± 0.34 | 15.8 ± 0.33 | inhibition at 20 µM [1, 3]: > 50%
6 | COc1cc(-c2ccc(/C=C(\C#N)C(=O)Nc3ccccc3)o2)c(OC)c2ccccc12 [Compound 4h, (E)-2-cyano-3-(5-(1,4-dimethoxynaphthalen-2-yl)furan-2-yl)-N-phenylacrylamide] | 9.49 ± 0.16 | 11.5 ± 0.14 | 0.25 ± 0.13 | 19.53 ± 0.17 | inhibition at 20 µM [1, 4]: 0.25 to 32.4%
7 | COc1cc(-c2ccc(C(=O)Nc3cccc(N4CCN(C)CC4)c3)o2)c(OC)c2ccccc12 [Compound 8e, 5-(1,4-Dimethoxynaphthalen-2-yl)-N-(3-(4-methylpiperazin-1-yl)phenyl)furan-2-carboxamide] | 40.58 ± 0.36 | 7.7 ± 0.27 | 14.5 ± 0.25 | 11.5 ± 0.17 | 
